From patent US20240293365A1, “METHODS FOR TREATING AND AMELIORATING T CELL RELATED DISEASES” (The Regents of the University of California, priority 2021, published 2024)

molecular target: T1, ZAP70 kinase (Homo sapiens, UniProt P43403); experiment: saFRET-HTDS: ZAP70 saFRET biosensor screening of a 96-member kinase inhibitor library in HEK293 cells; assay type: cell-based; conditions: 96-member kinase inhibitor library, 10 μM, FIG. 2D
T1 construct: The FRET change is mediated by the kinase domain; saFRET biosensor module (FRET pair and sensing unit); expressed in transfected cells; host or cells: HEK293
T1 sequence (P43403 338-600 limits assumed): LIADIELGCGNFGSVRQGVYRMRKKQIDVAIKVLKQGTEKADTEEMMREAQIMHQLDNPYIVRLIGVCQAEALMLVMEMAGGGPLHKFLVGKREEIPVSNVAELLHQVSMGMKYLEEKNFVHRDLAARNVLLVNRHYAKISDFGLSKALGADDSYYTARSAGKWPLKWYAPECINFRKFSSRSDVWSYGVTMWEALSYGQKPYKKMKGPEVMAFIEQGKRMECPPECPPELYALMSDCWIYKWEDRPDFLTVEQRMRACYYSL
Experimental: We first screened a 96-member kinase inhibitor library to identify efficient inhibitors of ZAP70 kinase. […] After 40 minutes of incubation with inhibitors, the cells were imaged, and the FRET ratio changes of individual inhibitors compared to the solvent control were calculated to identify promising candidates after this primary endpoint screening (FIG. 2). We further exploited a control biosensor with a kinase-dead domain (saFRETkd) for counter screening to eliminate false-positive hits due to auto-fluorescence or other non-specific effects (1).
C, Schematics of saFRET assay in HEK293 cells.
A, Schematics of the high throughput drug screening platform. First, the cells cultured in 96-well glass-bottom plate were treated either with DMSO or inhibitors from the kinase inhibitor library. After 40 minutes of incubation, the cells were imaged, and the FRET ratio change compared to the control cell was calculated.

top 10 selected inhibitors of the saFRET screening | Compound
top 10 | CCn1c(=O)c(-c2ccc(-c3cncs3)cc2Cl)cc2cnc(Nc3ccc(N4CCN(C)CC4)cc3)nc21 [FRAX 597]
top 10 | CNC(=O)c1ccccc1Nc1nc(Nc2ccc(N3CCOCC3)cc2OC)ncc1Cl [NVP-TAE226]
top 10 | Cc1[nH]c(/C=C2\C(=O)Nc3ccc(S(=O)(=O)Cc4c(Cl)cccc4Cl)cc32)c(C)c1C(=O)N1CCC[C@@H]1CN1CCCC1 [PHA-665752]
top 10 | COc1cc2c(Nc3ccc(NC(=O)c4ccccc4)cc3)ncnc2cc1OCCCN1CCOCC1 [ZM 447439]

Further lines, the molecule ahead of its results:

Compound | top 10 selected inhibitors of the saFRET screening
NC1CCCN(c2c(/C=C3/SC(=O)NC3=O)cccc2-c2ccccc2)C1 (stereo not drawn) [AZD 1208] | top 10
NC(=O)Nc1cc(-c2cccc(F)c2)sc1C(=O)N[C@H]1CCCNC1 [AZD 7762] | top 10
COc1ccc2cc(-c3nc(-c4ccc([S+](C)[O-])cc4)[nH]c3-c3ccncc3)ccc2c1 (stereo not drawn) [Tie2 kinase inhibitor] | top 10
CN[C@@H]1C[C@H]2O[C@@](C)([C@@H]1OC)n1c3ccccc3c3c4c(c5c6ccccc6n2c5c31)C(=O)NC4 [staurosporine] | top 10

same assay, conditions: inhibitor 10 μM, 40 minutes incubation

inhibition of ZAP70 kinase domain-mediated activation of saFRET biosensor (FRET ratio change vs solvent control) | Compound
relatively ineffective | Cn1cc(-c2nc(N[C@@H]3CCCC[C@@H]3N)c(F)c3c2C(=O)NC3)cn1 [TAK-659]
